Laboratory results from US8519136B2, “Aminopyridine derivatives having aurora a selective inhibitory action” (MSD K.K., priority 2008, dated 2013).
Where a name gives a salt, the structure may show the parent alone.

Assays:
[1] = test system: Human cervical cancer cells (HeLa S3); test: Cell growth inhibitory effect, WST-8 method; type: cell-based; settings: 72 h, HeLa S3, three days incubation, read-out: Cell growth inhibitory effect (HeLaS3) (IC50)
Description: Fetal calf serum (FCS) was purchased from Moregate Biotech, and DMEM medium was purchased from Invitrogen Corp. WST-8 was purchased from Kishida Chemical Co., Ltd.
Human cervical cancer cells (HeLa S3) were obtained from the American Type Culture Collection (ATCC).
Cells were suspended in a DMEM medium containing 10% FCS, and the cell suspension was dispensed to a 96-well plastic plate at a rate of 750 cells/100 microliters per well. The plate was incubated overnight in 5% CO2-95% air at 37° C. A drug was subjected to graded dilution in dimethylsulfoxide and further diluted with a DMEM medium containing 10% FCS. Then, the dilution was dispensed to the plate on which cells had been disseminated, at a rate of 100 microliters per well. The plate was incubated for further three days in 5% CO2-95% air at 37° C. Cell growth after incubation was measured by the WST-8 method (H. Tominaga, et al., Anal. Commun., 36, 47-50 (1999)). Here, the WST-8 method refers to a method in which 20 microliters of a WST-8 reagent solution is added to each well, incubation is conducted at 37° C. for 60 minutes, the plate is stirred, and the amount of formazan produced is measured by a colorimetric method to determine the inhibitory rate of the drug. The concentration for 50% growth inhibition (IC50, μM) of the compound was determined.

[2] = biological target: T1, GST-tagged human Aurora B(AurB)/His-tagged human INCENP complex proteins (Homo sapiens, UniProt Q96GD4); test: Aurora B inhibitory activity (Method A, IMAP kit); type: biochemical; settings: 40 μM ATP, 25° C., 45 minutes
T1 construct: GST; purchased Carna Biosciences, Inc
T1 sequence (Q96GD4 whole entry): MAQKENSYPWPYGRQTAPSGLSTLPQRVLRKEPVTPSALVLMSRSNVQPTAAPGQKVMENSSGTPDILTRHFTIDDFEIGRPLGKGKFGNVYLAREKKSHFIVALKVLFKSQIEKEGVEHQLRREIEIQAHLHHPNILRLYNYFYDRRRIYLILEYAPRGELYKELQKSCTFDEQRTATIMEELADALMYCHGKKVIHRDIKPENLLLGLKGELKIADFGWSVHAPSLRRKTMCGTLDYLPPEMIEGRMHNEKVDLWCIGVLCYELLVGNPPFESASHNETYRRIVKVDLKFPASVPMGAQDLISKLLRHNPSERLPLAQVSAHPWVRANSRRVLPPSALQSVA
T1 sequence (Q9NQS7 803-916 partner limits assumed): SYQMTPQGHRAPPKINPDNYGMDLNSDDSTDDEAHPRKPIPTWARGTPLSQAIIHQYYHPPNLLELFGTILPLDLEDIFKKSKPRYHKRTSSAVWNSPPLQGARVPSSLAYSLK
Description: An assay development kit for IMAP (registered trademark) (Aurora B), purchased from Carna Biosciences, Inc., was used for phosphorylation reaction, and the phosphorylation of a substrate was detected using the IMAP technology. The assay development kit used is comprised of an assay buffer, GST-tagged human Aurora B(AurB)/His-tagged human INCENP complex proteins (amino acid sequence: 803-916, AAU04398.1), and an ATP/substrate solution. Using the same, the phosphorylation reaction was conducted in accordance with a partially revised protocol attached to the kit, and then the phosphorylation of the substrate was detected using the IMAP technology.
For the phosphorylation reaction, 384 well plate was used, and the reaction volume was 10 μl/well. The composition of the reaction buffer (assay buffer) is comprised of 20 mM of HEPES buffer (pH 7.4), 0.01% Tween-20, and 2 mM of dithiothreitol (DTT). Thereto, AurB/INCENP complex protein, 100 nM of the substrate, and 40 μM of ATP, and 1 mM of magnesium salt were added, and then the reaction was conducted at 25° C. for 45 minutes. Thereafter, in order to terminate and detect the reaction, 30 μl of the IMAP (registered trademark) binding reagent (IMAP Progressive Binding Reagent, R7284) that had been diluted (1:400) in the 1×IMAP binding buffer A (IMAP Progressive Binding Buffer A, 5× stock, R7282) was added to each well. The solution stood still for 60 minutes in the dark, and then fluorescence polarization was measured using a high-end microplate reader (excitation wavelength: 485 nm; emission wavelength: 520 nm).
The compound to be tested was added to the reaction system such that a dilution series of the compound in DMSO was prepared, and then 0.5 μL of this solution was added for the testing to each well. Each control well was provided by adding 0.5 μL of DMSO to the well in place of the DMSO solution containing the compound to be tested.

IC50 [1] [nM]	IC50 [2] [nM]	SMILES
1730	> 1000	O=c1[nH]nc(C2(Cc3cccc(Nc4cc[nH]n4)n3)CCN(S(=O)(=O)c3ccccc3C(F)(F)F)CC2)o1 [Example 14, 5-(4-((6-(1H-pyrazol-3-ylamino)pyridin-2-yl)methyl)-1-((2-(trifluoromethyl)phenyl)sulfonyl)piperidin-4-yl)-1,3,4-oxadiazol-2(3H)-one trifluoroacetate]
780	369	Cl.O=C(c1cccc(Cl)c1F)N1CCC(O)(Cc2cccc(Nc3cc[nH]n3)n2)CC1 [Example 2, 1-(3-chloro-2-fluorobenzoyl)-4-((6-(1H-pyrazol-3-ylamino)pyridin-2-yl)methyl)piperidin-4-ol hydrochloride]

SMILES	IC50 [1] [nM]	IC50 [2] [nM]
O=c1[nH]nc(C2(Cc3cccc(Nc4cc[nH]n4)n3)CCN(C(c3cccc(C(F)(F)F)c3)C(F)(F)F)CC2)o1 (stereo not drawn) [Example 19, 5-(4-((6-(1H-pyrazol-3-ylamino)pyridin-2-yl)methyl)-1-(2,2,2-trifluoro-1-(3-(trifluoromethyl)phenyl)ethyl)piperidin-4-yl)-1,3,4-oxadiazol-2(3H)-one trifluoroacetate]	1010	> 1000
